# Test results: patent US9776972B2, “Pyrazole derivatives as arginine methyltransferase inhibitors and uses thereof” (priority 2013, dated 2017)
# Molecular target: human PRMT3 (Homo sapiens, UniProt O60678)
# Test: PRMT3 Biochemical Assay (3H-SAM Flashplate, peptide substrate)
# Conditions: single experiment or average of multiple experiments
# Description: S-adenosylmethionine (SAM), S-adenosylhomocysteine (SAH), bicine, Tween20, dimethylsulfoxide (DMSO), bovine skin gelatin (BSG), isopropyl-β-D-thiogalactopyranoside (IPTG), and Tris(2-carboxyethyl)phosphine hydrochloride solution (TCEP) were purchased from Sigma-Aldrich at the highest level of purity possible. ^3H-SAM was purchase from American Radiolabeled Chemicals with a specific activity of 80 Ci/mmol. 384-well streptavidin Flashplates were purchased from PerkinElmer.
# Peptide containing the classic RMT substrate motif was synthesized with an N-terminal linker-affinity tag motif and a C-terminal amide cap by 21st Century Biochemicals. The peptide was purified by high-performance liquid chromatography (HPLC) to greater than 95% purity and confirmed by liquid chromatography mass spectrometry (LC-MS). The sequence was Biot-Ahx-[…]-amide (SEQ ID NO.:11).
# Full-length human PRMT3 (NM_005788.3) isoform 1 transcript clone was amplified from an HEK 293 cDNA library and subcloned into pGEX-KG (GE Life Sciences). The resulting construct encodes an N-terminal GST tag and a thrombin cleavage sequence ([…] […] […] […]) (SEQ ID NO.: 12) fused directly to Cys 2 of PRMT3.
# E. coli (BL21(DE3) Gold, Stratagene) made competent by the CaCl2 method were transformed with the PRMT3 construct and ampicillin selection. Protein over-expression was accomplished by growing the PRMT3 expressing E. coli clone and inducing expression with 0.3 mM IPTG at 16° C. The culture was grown for 12 hours, harvested by centrifugation, and stored at −80° C. for purification.
# GST-tagged PRMT3 was eluted with 50 mM Tris, 2 mM glutathione, pH 7.1 and 50 mM Tris, 20 mM glutathione, pH 7.1. Pooled fractions were dialysed in 20 mM Tris, 50 mM NaCl, 5% glycerol, 1 mM EDTA, 1 mM DTT, pH7.5 (Buffer B) and applied to a Q Sepharose Fast Flow column. GST-tagged PRMT3 was eluted by 500 mM NaCl in buffer B. Pooled fractions were dialyzed in 25 mM phosphate buffer, 100 mM NaCl, 5% glycerol, 2 mM DTT, pH 6.8 (Buffer C) and loaded on to a ceramic hydroxyapatite column. GST-tagged PRMT3 eluted with 25-400 mM phosphate in buffer C. Protein was concentrated and buffer was exchanged to 20 mM Tris, 150 mM NaCl, 5% glycerol, 5 mM β-mercaptoethanol, pH7.8 by ultrafiltration. The purity of recovered protein was 70%.
# General Procedure for PRMT3 Enzyme Assays on Peptide Substrates.
# The assays were all performed in a buffer consisting of 20 mM Bicine (pH=7.6), 1 mM TCEP, 0.005% BSG, and 0.002% Tween 20, prepared on the day of use. Compounds in 100% DMSO (1 ul) were spotted into a polypropylene 384-well V-bottom plates (Greiner) using a Platemate Plus outfitted with a 384-channel head (Thermo Scientific). DMSO (1 ul) was added to Columns 11, 12, 23, 24, rows A-H for the maximum signal control and 1 ul of SAH, a known product and inhibitor of PRMT3, was added to columns 11, 12, 23, 24, rows I-P for the minimum signal control. A cocktail (40 ul) containing the PRMT3 enzyme was added by Multidrop Combi (Thermo-Fisher). The compounds were allowed to incubate with PRMT3 for 30 min at room temperature, then a cocktail (10 ul) containing SAM and peptide was added to initiate the reaction (final volume=51 ul). The final concentrations of the components were as follows: PRMT3 was 0.5 nM, ^3H-SAM was 100 nM, non-radiolabeled SAM was 1.8 uM, peptide was 330 nM, SAH in the minimum signal control wells was 1 mM, and the DMSO concentration was 2%. The assays were stopped by the addition of potassium chloride (10 ul) to a final concentration of 100 mM. 50 ul of the reaction in the 384-well polypropylene plate was then transferred to a 384-well Flashplate and the biotinylated peptides were allowed to bind to the streptavidin surface for at least 1 hour before being washed once with 0.1% Tween20 in a Biotek ELx405 plate washer. […]
# Chain of human PRMT3 (O60678 with tags, fused parts or gaps): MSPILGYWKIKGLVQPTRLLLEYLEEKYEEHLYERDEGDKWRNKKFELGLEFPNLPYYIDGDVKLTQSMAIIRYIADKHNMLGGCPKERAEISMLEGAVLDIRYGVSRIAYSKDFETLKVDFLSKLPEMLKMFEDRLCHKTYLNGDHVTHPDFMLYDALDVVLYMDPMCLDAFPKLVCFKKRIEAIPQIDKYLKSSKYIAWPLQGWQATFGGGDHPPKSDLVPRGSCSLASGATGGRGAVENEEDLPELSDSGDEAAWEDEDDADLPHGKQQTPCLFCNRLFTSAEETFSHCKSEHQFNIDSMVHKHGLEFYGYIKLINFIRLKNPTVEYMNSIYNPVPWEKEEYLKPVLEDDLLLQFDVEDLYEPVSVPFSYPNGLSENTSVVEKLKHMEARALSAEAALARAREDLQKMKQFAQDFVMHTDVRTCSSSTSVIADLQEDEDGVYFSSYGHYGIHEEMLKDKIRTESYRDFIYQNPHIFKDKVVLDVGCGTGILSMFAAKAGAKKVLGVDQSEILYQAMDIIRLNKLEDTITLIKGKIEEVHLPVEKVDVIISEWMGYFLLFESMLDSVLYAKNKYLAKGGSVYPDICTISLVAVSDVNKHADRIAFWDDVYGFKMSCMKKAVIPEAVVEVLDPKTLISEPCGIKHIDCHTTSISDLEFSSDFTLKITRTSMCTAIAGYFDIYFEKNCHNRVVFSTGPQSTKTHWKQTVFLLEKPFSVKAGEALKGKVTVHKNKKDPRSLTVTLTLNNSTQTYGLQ
row,SMILES,IC50 [µM]
1,COCCn1ncc(CN(C)CCN)c1-c1ccc(F)cc1 [Compound 6],> 50
2,CCn1ncc(CN(C)CCNC)c1-c1ccc(F)cc1 [Compound 7],26
3,CCn1cc(CN(C)CCNC)c(-c2ccc(F)cc2)n1 [Compound 8],> 50
4,CN(CCN)Cc1c[nH]nc1-c1ccc(OCC(F)(F)F)cc1 [Compound 96],3.14
5,CC(C)Oc1ccc(-c2n[nH]cc2CN(C)CCN)cc1F [Compound 97],3.5
6,CN(CCN)Cc1c[nH]nc1-c1ccc(C2CCOCC2)cc1 [Compound 98],0.684
7,CN(CCN)Cc1n[nH]cc1-c1ccc(C#N)cc1 [Compound 100],7.26
8,CN(CCN)Cc1n[nH]cc1-c1ccc(Cl)cc1 [Compound 102],6.16
9,CN(CCN)Cc1n[nH]cc1-c1ccc(OC(F)(F)F)cc1 [Compound 105],9.83
10,COc1ccc(-c2n[nH]cc2CN(C)CCN)c(F)c1 [Compound 107],8
11,Cc1ccc(-c2n[nH]cc2CN(C)CCN)c(F)c1 [Compound 108],9.91
12,Cc1cc(C#N)ccc1-c1n[nH]cc1CN(C)CCN [Compound 110],7.21
13,CN(CCN)Cc1c[nH]nc1-c1cc(F)cc(F)c1 [Compound 111],5.39
14,CC(=O)c1cccc(-c2n[nH]cc2CN(C)CCN)c1 [Compound 112],3.68
15,CN(CCN)Cc1c[nH]nc1-c1ccc(OC2CC2)cc1 [Compound 114],3.2
16,CC(O)c1ccc(-c2n[nH]cc2CN(C)CCN)cc1 (centres unmarked) [Compound 115],8.32
17,CN(CCN)Cc1c[nH]nc1-c1ccc(C2CC2)cc1 [Compound 116],2.78
18,CN(CCN)Cc1c[nH]nc1-c1ccc(C(F)(F)F)c(Cl)c1 [Compound 117],2.3
19,CN(CCN)Cc1c[nH]nc1-c1ccc(Cl)c(F)c1 [Compound 118],1.04

row,SMILES,IC50 [µM]
1,CN(CCN)Cc1n[nH]cc1-c1ccc(OC2CC2)cc1 [Compound 119],9.6
2,CN(CCN)Cc1c[nH]nc1-c1cc(F)cc(Cl)c1 [Compound 121],2.88
3,CN(CCN)Cc1c[nH]nc1-c1cccc(Cl)c1 [Compound 122],5.01
4,CN(CCN)Cc1c[nH]nc1-c1cccc(Cl)c1F [Compound 123],3.92
5,CN(CCN)Cc1c[nH]nc1-c1ccc(F)c(Cl)c1 [Compound 124],2.22
6,COc1ccc(-c2n[nH]cc2CN(C)CCN)cc1Cl [Compound 125],4.32
7,Cc1ccc(-c2n[nH]cc2CN(C)CCN)cc1Cl [Compound 126],2.55
8,COc1cc(Cl)cc(-c2n[nH]cc2CN(C)CCN)c1 [Compound 127],5.65
9,Cc1c(F)cccc1-c1n[nH]cc1CN(C)CCN [Compound 129],9.91
10,COc1cccc(-c2n[nH]cc2CN(C)CCN)c1 [Compound 130],6.46
11,Cc1cccc(-c2n[nH]cc2CN(C)CCN)c1 [Compound 131],3.57
12,CN(CCN)Cc1c[nH]nc1-c1ccc(Cl)cc1F [Compound 132],3.98
13,Cc1cc(Cl)ccc1-c1n[nH]cc1CN(C)CCN [Compound 133],4.1
14,COc1ccc(-c2n[nH]cc2CN(C)CCN)cc1F [Compound 134],5.44
15,CN(CCN)Cc1c[nH]nc1-c1cc(Cl)cc(Cl)c1 [Compound 137],7.58
16,CN(CCN)Cc1c[nH]nc1-c1ccccc1C#N [Compound 140],5.21
17,CN(CCN)Cc1c[nH]nc1-c1ccc(C(F)(F)F)c(F)c1 [Compound 141],3.47
18,COc1cc(-c2n[nH]cc2CN(C)CCN)ccc1F [Compound 142],4.83
19,CCN(CC)C(=O)c1ccc(-c2n[nH]cc2CN(C)CCN)cc1 [Compound 143],8.37
